Key:
Assay type in all cases: cell-based
[1] = system: Hormoconis resinae ATCC 20495; assay: Antimicrobial activity according to ASTM E 1259-10, kerosene fungus; conditions: FIG. 3, additive 1000 ppm, additive composition 2000 ppm or 5000 ppm; for killing of the tested kerosene fungus: MBO 1000 ppm
Description: • “TUNAP active ingredient”: test solution containing 1000 ppm 2-(2-heptadec-8-enyl-2-imidazolin-1-yl)ethanol additive (example according to the disclosure). • “TUNAP Protection System Diesel”: test solutions containing 2000 ppm or 5000 ppm of the additive composition “1903391” described below (corresponding to approx. 1000 ppm or 2500 ppm of the active ingredient 2-(2-heptadec-8-enyl-2-imidazolin-1-yl)ethanol) (examples according to the disclosure). • “Tunap 685 (Protezione Diesel) Biocide with MBO”: test solution containing 1000 ppm of the biocide MBO (3,3-methylenebis (5-methyloxazolidine), (comparative sample). • “BIT”: test solution containing 1000 ppm of the biocide BIT (benzisothiazolinone) (comparative sample). • “blank”: fuel without addition of an additive (comparative sample)
• at least 50% by weight 2-(2-heptadec-8-enyl-2-imidazolin-1-yl)ethanol • 10 to 20% by weight C10-C13 hydrocarbons • 5 to 10% by weight 2,6-di-tert-butyl-4-cresol • 5 to 10% by weight 2-ethylhexanol • 5 to 10% by weight 2-ethylhexyl nitrate • 5 to 10% by weight. of a mixture of bis(2-ethylhexyl)[(4-methyl-1H-1,2,3-benzotriazol-1-yl)methyl]amine, bis(2-ethylhexyl) [(4-methyl-2H-1,2,3-benzotriazol-2-yl)methyl]amine, bis(2-ethylhexyl) [(5-methyl-1H-1,2,3-benzotriazol-1-yl)methyl]amine, bis(2-ethylhexyl) [(5-methyl-2H-1,2,3-benzotriazol-2-yl)methyl]amine, bis(2-ethylhexyl) [(6-methyl-1H-1,2,3-benzotriazol-1-yl)methyl]amine
• Hormoconis resinae ATCC 20495 (“kerosene fungus”) • Pseudomonas aeruginosa DSM 15980 (“bacterium”) • Yarrowia tropicalis ATCC 48138 (“yeast”)
(§1) The antimicrobial activity of the samples against the tested microorganisms was determined according to ASTM E 1259-10.

[2] = system: Pseudomonas aeruginosa DSM 15980; assay: Antimicrobial activity according to ASTM E 1259-10, bacterium; conditions: FIG. 4; additive composition 2000 ppm or 5000 ppm, MBO 1000 ppm
Description: (§2) • “TUNAP active ingredient”: test solution containing 1000 ppm 2-(2-heptadec-8-enyl-2-imidazolin-1-yl)ethanol additive (example according to the disclosure). • “TUNAP Protection System Diesel”: test solutions containing 2000 ppm or 5000 ppm of the additive composition “1903391” described below (corresponding to approx. 1000 ppm or 2500 ppm of the active ingredient 2-(2-heptadec-8-enyl-2-imidazolin-1-yl)ethanol) (examples according to the disclosure). • “Tunap 685 (Protezione Diesel) Biocide with MBO”: test solution containing 1000 ppm of the biocide MBO (3,3-methylenebis (5-methyloxazolidine), (comparative sample). • “BIT”: test solution containing 1000 ppm of the biocide BIT (benzisothiazolinone) (comparative sample). • “blank”: fuel without addition of an additive (comparative sample) […]
as §1

[3] = system: Hormoconis resinae ATCC 20495; assay: Antimicrobial efficacy according to DIN EN 15457:2014-11, kerosene fungus; conditions: FIG. 1; test solution 1% by weight additive vs 0.1% by weight MBO or MIT
Description: (§3) • “TUNAP new”: Test solution containing 1% by weight 2-(2-heptadec-8-enyl-2-imidazolin-1-yl)ethanol additive (example according to the disclosure). • “Standard diesel bug biocide with MBO”: test solution containing 0.1% by weight of the biocide MBO (3,3-methylenebis (5-methyloxazolidine)) (comparative sample). • “MIT”: test solution containing 0.1% by weight of the biocide MIT (2-methyl-2H-isothiazol-3-one), (comparative sample). • “Pure fuel”: fuel without the addition of an additive (comparative sample)
(§4) • Hormoconis resinae ATCC 20495 (“kerosene fungus”) • Yarrowia tropicalis ATCC 48138 (“yeast fungus”)
(§5) The antimicrobial efficacy of the samples against the tested microorganisms was determined according to DIN EN 15457:2014-11.

[4] = system: Yarrowia tropicalis ATCC 48138; assay: Antimicrobial efficacy according to DIN EN 15457:2014-11, yeast fungus; conditions: FIG. 2; test solution 1% by weight additive vs 0.1% by weight MBO or MIT
Description: as §3, §4, §5

[5] = system: Yarrowia tropicalis ATCC 48138; assay: Antimicrobial activity according to ASTM E 1259-10, yeast; conditions: FIG. 5; additive 1000 ppm, additive composition 2000 ppm or 5000 ppm, BIT 1000 ppm
Description: as §2, §1

SMILES	killing of the tested kerosene fungus [1]	killing of the tested bacterium [2]	efficacy against the tested kerosene fungus compared with MBO and MIT [3]	efficacy against the tested yeast fungus compared with MBO and MIT [4]	efficacy against the tested kerosene fungus compared with BIT ([1]; BIT 1000 ppm)	efficacy against the tested yeast compared with BIT [5]
CC1CN(CN2COC(C)C2)CO1 (stereo not shown) [MBO, 3,3-methylenebis (5-methyloxazolidine), reference compound]	almost complete killing	almost complete killing	–	–	–	–
CCCCCCCCC=CCCCCCCCC1=NCCN1CCO [additive according to the disclosure, 2-(2-heptadec-8-enyl-2-imidazolin-1-yl)ethanol]	almost complete killing	–	significantly improved efficacy against the tested kerosene fungus than the conventional and also toxic biocides MBO and MIT	at least a similar efficacy against the tested yeast fungus as the conventional but toxic biocides MBO and MIT	significantly improved efficacy against the tested kerosene fungus than the conventional biocide BIT	significantly improved efficacy against the tested yeast than the conventional biocide BIT
